Measurements: ChEMBL document CHEMBL2429731, “Using genetic methods to define the targets of compounds with antimalarial activity” (J Med Chem, 2013)

Each molecule was assayed on Plasmodium berghei (assay: Antimalarial activity against gametocytic stage of Plasmodium berghei infected in blood assessed as inhibition of ookinete formation at 10 uM after 24 hrs by Giemsa staining-based microscopic analysis relative to control).
Type: functional

Compound	inhibition at 10 µM [%]
O=C1C(O)=C([C@H]2CC[C@H](c3ccc(Cl)cc3)CC2)C(=O)c2ccccc21 [ATOVAQUONE]	< 50
CN(C)c1ccc2nc3ccc(N(C)C)cc3[s+]c2c1 [METHYLENE BLUE ANHYDROUS]	< 50
COc1cc(NC(C)CCCN)c2ncccc2c1 (configuration not stated) [PRIMAQUINE]	< 50
CCc1nc(N)nc(N)c1-c1ccc(Cl)cc1 [PYRIMETHAMINE]	< 50
COc1ccc2nc3cc(Cl)ccc3c(Nc3cc(CN4CCCC4)c(O)c(CN4CCCC4)c3)c2n1 [PYRONARIDINE]	< 50
C=C[C@H]1CN2CC[C@H]1C[C@H]2[C@H](O)c1ccnc2ccc(OC)cc12 [QUININE]	< 50

These molecules were tested on Plasmodium yoelii (assay: Antimalarial activity against sporozoite stage of Plasmodium yoelii assessed as invasion of human HepG2 cells expressing CD81 incubated for 2 hrs prior to inoculation measured after 1 hr by immunofluorescence assay in presence of penicillin/streptomycin).
Type: functional, organism-based

Compound	IC50 [nM]
COc1cc(N[C@H](C)CCCN)c2nccc(C)c2c1Oc1ccc(Cl)c(Cl)c1	< 1000
CO[C@H]1O[C@@H]2O[C@@]3(C)CC[C@H]4[C@H](C)CC[C@@H]([C@H]1C)[C@@]24OO3 [ARTEMETHER]	< 1000
C[C@H]1[C@@H](O)O[C@@H]2O[C@@]3(C)CC[C@H]4[C@H](C)CC[C@@H]1[C@@]24OO3 [ARTENIMOL]	< 1000
C[C@H]1[C@H](OC(=O)CCC(=O)O)O[C@@H]2O[C@@]3(C)CC[C@H]4[C@H](C)CC[C@@H]1[C@@]24OO3 [ARTESUNATE]	< 1000
COc1cc(C)c2c(Oc3cccc(C(F)(F)F)c3)c(OC)cc(NC(C)CCCN)c2n1 (configuration not stated) [TAFENOQUINE]	< 1000

Other lines, results leading:

IC50 [nM]	Compound
< 1000	CCc1nc(N)nc(N)c1OCCCOc1ccccc1CCC(=O)O
< 1000	O=C1C(O)=C([C@H]2CC[C@H](c3ccc(Cl)cc3)CC2)C(=O)c2ccccc21 [ATOVAQUONE]
< 1000	CN(C)c1ccc2nc3ccc(N(C)C)cc3[s+]c2c1 [METHYLENE BLUE ANHYDROUS]
< 1000	COc1cc(NC(C)CCCN)c2ncccc2c1 (configuration not stated) [PRIMAQUINE]
< 1000	CCc1nc(N)nc(N)c1-c1ccc(Cl)cc1 [PYRIMETHAMINE]
< 1000	COc1ccc2nc3cc(Cl)ccc3c(Nc3cc(CN4CCCC4)c(O)c(CN4CCCC4)c3)c2n1 [PYRONARIDINE]
